The record followed here is US10647692B2, “Heterocycle-substituted bicyclic azole pesticides” (FMC Corporation, priority 2015, dated 2020).

What is called mortality is the percentage killed. Low readings indicate a weak lethal effect, high ones a strong lethal effect.

Assay type in all cases: in vivo
In data set [1] the test system is cotton melon aphid (Aphis gossypii (Glover)). The experiment in a line: Test B: control of cotton melon aphid, foliar spray on pre-infested cotton plant. As to conditions: 144 h, assessed after 6 days; for mortality at 50 ppm: sprayed at 50 ppm; for mortality at 250 ppm: sprayed at 250 ppm. As to the method:
(§1) Test compounds were formulated using a solution containing 10% acetone, 90% water and 300 ppm X-77® Spreader Lo-Foam Formula non-ionic surfactant containing alkylarylpolyoxyethylene, free fatty acids, glycols and isopropanol (Loveland Industries, Inc. Greeley, Colo., USA). The formulated compounds were applied in 1 mL of liquid through a SUJ2 atomizer nozzle with ⅛ JJ custom body (Spraying Systems Co. Wheaton, Ill., USA) positioned 1.27 cm (0.5 inches) above the top of each test unit. Test compounds were sprayed at the rates indicated, and each test was replicated three times.
For evaluating control of cotton melon aphid (Aphis gossypii (Glover)) through contact and/or systemic means, the test unit consisted of a small open container with a 6-7-day-old cotton plant inside. This was pre-infested with 30-40 insects on a piece of leaf according to the cut-leaf method, and the soil of the test unit was covered with a layer of sand.
Test compounds were formulated and sprayed at 250 and/or 50 ppm. After spraying, the test units were maintained in a growth chamber for 6 days at 19° C. and 70% relative humidity. Each test unit was then visually assessed for insect mortality.

Data set [2] relates to green peach aphid (Myzus persicae (Sulzer)). The experiment in a line: Test A: control of green peach aphid, foliar spray on pre-infested radish plant. As to conditions: 144 h, assessed after 6 days; for mortality at 50 ppm: sprayed at 50 ppm; for mortality at 250 ppm: sprayed at 250 ppm. As to the method: as §1
For evaluating control of green peach aphid (Myzus persicae (Sulzer)) through contact and/or systemic means, the test unit consisted of a small open container with a 12-15-day-old radish plant inside. This was pre-infested by placing on a leaf of the test plant 30-40 aphids on a piece of leaf excised from a culture plant (cut-leaf method). The aphids moved onto the test plant as the leaf piece desiccated. After pre-infestation, the soil of the test unit was covered with a layer of sand.
Test compounds were formulated and sprayed at 250 and/or 50 ppm. After spraying of the formulated test compound, each test unit was allowed to dry for 1 hour and then a black, screened cap was placed on top. The test units were held for 6 days in a growth chamber at 19-21° C. and 50-70% relative humidity. Each test unit was then visually assessed for insect mortality.

In data set [3] the test system is Western Flower Thrips (Frankliniella occidentalis). The data set can be described thus: Test D: control of Western Flower Thrips, sprayed Soleil bean plant. As to conditions: held for 7 days. The method, then:
as §1
For evaluating control of Western Flower Thrips (Frankliniella occidentalis) through contact and/or systemic means, the test unit consisted of a small open container with a 5-7-day-old Soleil bean plant inside.
Test compounds were formulated and sprayed at 250 and/or 50 ppm. After spraying, the test units were allowed to dry for 1 hour, and then 22-27 adult thrips were added to the unit. A black, screened cap was placed on the top of each test unit, and the test units were held for 7 days at 25° C. and 45-55% relative humidity.

In data set [4] the test system is sweetpotato whitefly (Bemisia tabaci (Gennadius)). The experiment in a line: Test E: control of sweetpotato whitefly, sprayed cotton plant infested with eggs. As to conditions: 312 h, assessed after 13 days; for mortality at 250 ppm: sprayed at 250 ppm. As to the method: as §1
For evaluating control of the sweetpotato whitefly (Bemisia tabaci (Gennadius)) through contact and/or systemic means, the test unit consisted of a small open container with a 12-14-day-old cotton plant inside. Prior to the spray application, both cotyledons were removed from the plant, leaving one true leaf for the assay. Adult whiteflies were allowed to lay eggs on the plant and then were removed from the test unit. Cotton plants infested with at least 15 eggs were submitted to the test for spraying.
Test compounds were formulated and sprayed at 250 and/or 50 ppm. After spraying, the test units were allowed to dry for 1 hour. The cylinders were then removed, and the units were taken to a growth chamber and held for 13 days at 28° C. and 50-70% relative humidity. Each test unit was then visually assessed for insect mortality.

Data set [5] relates to potato leafhopper (Empoasca fabae). The experiment in a line: Test C: control of potato leafhopper, sprayed Soleil bean plant, post-infested. As to conditions: assessed after 6 days. The method, then:
as §1
For evaluating control of potato leafhopper (Empoasca fabae) through contact and/or systemic means, the test unit consisted of a small open container with a 5-6-day-old Soleil bean plant (primary leaves emerged) inside. White sand was added to the top of the soil and one of the primary leaves was excised prior to application.
Test compounds were formulated and sprayed at 250 ppm and/or 50 ppm. After spraying, the test units were allowed to dry for 1 h before they were post-infested with 5 potato leafhoppers (18-21-day-old adults). A black, screened cap was placed on the top of each test unit, and the test units were held for 6 days in a growth chamber at 24° C. and 70% relative humidity. Each test unit was then visually assessed for insect mortality.

SMILES strings stand for the structures.

Take `CSCCC(=O)c1cccc2nn(-c3cccnc3)cc12` [Compound 2, 3-(methylthio)-1-[2-(3-pyridinyl)-2H-indazol-4-yl]-1-propanone]: the mortality at 50 ppm in data set [1] and in data set [2] was at least 80% each time. Further, the “control efficacy (plant damage and/or mortality)” value in data set [3] (sprayed at 50 ppm) is reported as 40% or less plant damage and/or 100% mortality.

Consider `CSCCC(=O)c1ccc2nn(-c3cccnc3)cc2c1` [Compound 31], for which the “control efficacy (plant damage and/or mortality)” value in data set [3] (sprayed at 50 ppm) was 40% or less plant damage and/or 100% mortality.

`COCNCCC(=O)c1ccc2nn(-c3cccnc3)cc2c1` [Compound 32, 3-(methoxymethylamino)-1-[2-(3-pyridinyl)-2H-indazol-5-yl]-1-propanone] registered a mortality at 250 ppm in data set [1] of at least 80%. In data set [2], this compound had a mortality at 50 ppm of at least 80% and a mortality at 250 ppm of at least 80%. In addition, the “control efficacy (plant damage and/or mortality)” value in data set [3] (sprayed at 250 ppm) was 40% or less plant damage and/or 100% mortality.

`FC(F)(F)c1ccc(Oc2ccc3nn(-c4cccnc4)cc3c2)cc1` [Compound 35]: the “control efficacy (plant damage and/or mortality)” value in data set [3] (sprayed at 250 ppm) is reported as 40% or less plant damage and/or 100% mortality.

In data set [1], `CC(C)NC(=O)Cc1ccc2nn(-c3cccnc3)cc2c1` [Compound 38, N-(1-methylethyl)-2-(3-pyridinyl)-2H-indazole-5-acetamide] registered a mortality at 50 ppm of at least 80% and a mortality at 250 ppm of at least 80%. In data set [2], the mortality at 50 ppm is at least 80% and the mortality at 250 ppm was at least 80%. For the same compound, the “control efficacy (plant damage and/or mortality)” value in data set [3] (sprayed at 250 ppm) is recorded as 40% or less plant damage and/or 100% mortality.

Turning to `O=C(Cc1ccc2nn(-c3cccnc3)cc2c1)NCC(F)(F)F` [Compound 41], the “control efficacy (plant damage and/or mortality)” value in data set [3] (sprayed at 250 ppm) is given as 40% or less plant damage and/or 100% mortality.

With `c1cnc(Oc2ccc3nn(-c4cccnc4)cc3c2)nc1` [Compound 42, 2-(3-pyridinyl)-5-(2-pyrimidinyloxy)-2H-indazole], the mortality at 50 ppm in data set [1] and in data set [2] was at least 80% throughout. Besides, the mortality at 250 ppm in data set [1] and in data set [2] was at least 80% throughout.

As for `O=C(NCC(F)(F)F)C(=O)c1ccc2nn(-c3cccnc3)cc2c1` [Compound 48, α-oxo-2-(3-pyridinyl)-N-(2,2,2-trifluoroethyl)-2H-indazole-5-acetamide], the mortality at 250 ppm in data set [1] was at least 80%. Also, in data set [2], the mortality at 50 ppm was at least 80% and the mortality at 250 ppm was at least 80%.

In the case of `CC(C)COc1ccc2nn(-c3cccnc3)cc2c1` [Compound 54, 5-(2-methylpropoxy)-2-(3-pyridinyl)-2H-indazole], the mortality at 50 ppm in data set [1] is at least 80%; in data set [4] (sprayed at 50 ppm), at least 50%; in data set [2] it was at least 80%. The mortality at 250 ppm is at least 80% in data set [1], at least 50% in data set [4] and at least 80% in data set [2].

`CC(C)NC(=O)Cc1ccc2nn(-c3cncc(F)c3)cc2c1` [Compound 56]: the “control efficacy (mortality)” value in data set [5] (sprayed at 50 ppm) and in data set [5] (sprayed at 250 ppm) was at least 80% in each case.

Consider `CC(C(=O)NCc1ncccn1)c1ccc2nn(-c3cccnc3)cc2c1` (stereo not drawn) [Compound 59, α-methyl-2-(3-pyridinyl)-N-(2-pyrimidinylmethyl)-2H-indazole-5-acetamide], for which the mortality at 50 ppm in data set [1] and in data set [2] was at least 80% each time. Moreover, the mortality at 250 ppm in data set [1] was at least 80%; in data set [4], at least 50%; in data set [2] it was at least 80%.

Regarding `CC(C(=O)NC(C)(C)C#N)c1ccc2nn(-c3cccnc3)cc2c1` (stereo not drawn) [Compound 85, N-(1-cyano-1-methylethyl)-α-methyl-2-(3-pyridinyl)-2H-indazole-5-acetamide], the mortality at 50 ppm in data set [1] and in data set [2] was at least 80% each time. For the same compound, the mortality at 250 ppm in data set [1] was at least 80%; in data set [4], at least 50%; in data set [2], at least 80%.
